Results published in patent US20250129486A1, “A METHOD FOR MANUFACTURING PHARMACEUTICAL GRADE HYPOCHLOROUS ACID” (priority 2022, published 2025).

Assays:
[1] = Storage stability of HOCl solution by container; format: physicochemical; settings: any form of plastic container
From the text: The present invention relates to a method of manufacture of pharmaceutical grade hypochlorous acid (HOCl) solution. The solution is free of toxic by-products and is manufactured by means of a process that is novel. Furthermore, the manufacturing process results in high concentration HOCl solution at a pre-determined pH level. The solution is stable when kept in UV-protected glass for two years. Due to the method and process of manufacture, the solution is of a pharmaceutical grade.
HOCl+UV light→OH+Cl^−+O3 [Reaction Formula 11] • It is therefore essential to store solutions containing HOCl in UV-protected inert containers. • ii) The container in which the solutions are kept should be made of glass. […] Glass containers avoid oxidation reactions between the container and HOCl. • iii) Stable HOCl production requires platinum grade reactants, including pure water without any organic and inorganic compounds or ions, as the oxidation of these compounds will deplete the HOCl concentration in the solution. • iv) Correcting the solution pH to between 4.0-5.80 immediately after manufacturing, through real-time buffering. Variation outside pH 4.0 to 5.80 will not only result in the dissociation of HOCl into Cl2 or OCl^− but will provide the environment for the decomposition of HOCl to form chlorate. It is therefore of utmost importance that this pH level

[2] = cited from earlier work

Q: With `OCl` [HOCl, hypochlorous acid] as the compound, how does the “Decomposition of HOCl in container” value [1] read?
A: marked decomposition

Q: And the pKa [2]?
A: 7.53
